Assay results taken from US12202818B2, “Compounds and methods for CD73 modulation and indications therefor” (Opna Bio SA, priority 2020, dated 2025).

Columns and labels:
[1] = target: T1, Human CD73 (amino acid residues 27-549) (Homo sapiens, UniProt P21589); assay: CD73 enzymatic assay (luciferase-based indirect assay, CellTiter-Glo); format: biochemical; conditions: 0.4 nM CD73, 150 μM AMP, 1 hour at room temperature
T1 construct: Human CD73 (amino acid residues 27-549); His tag (N); made in house; host or cells: E. coli
T1 sequence (P21589 27-549): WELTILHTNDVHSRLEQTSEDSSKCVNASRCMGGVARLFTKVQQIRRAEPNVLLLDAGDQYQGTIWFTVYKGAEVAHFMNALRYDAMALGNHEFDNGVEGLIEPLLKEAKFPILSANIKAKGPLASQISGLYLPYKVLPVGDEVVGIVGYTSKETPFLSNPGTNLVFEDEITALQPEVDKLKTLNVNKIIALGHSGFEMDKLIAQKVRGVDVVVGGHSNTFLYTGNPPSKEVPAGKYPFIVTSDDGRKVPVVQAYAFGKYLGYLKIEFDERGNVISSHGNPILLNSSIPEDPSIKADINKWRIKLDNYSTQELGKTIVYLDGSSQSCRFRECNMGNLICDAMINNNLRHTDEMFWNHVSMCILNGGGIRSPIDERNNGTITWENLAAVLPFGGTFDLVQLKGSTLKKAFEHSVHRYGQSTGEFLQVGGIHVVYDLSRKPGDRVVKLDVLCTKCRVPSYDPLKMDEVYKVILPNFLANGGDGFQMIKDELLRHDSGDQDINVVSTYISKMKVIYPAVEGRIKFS
Outline: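 N-His human CD73 (27-549) expressed in E. coli, 0.4 nM, incubated with 150 μM AMP and compound in 50 mM HEPES pH 7.4, 0.01% Tween-20, 1 h at RT. Remaining AMP read via CellTiter-Glo luminescence with 1 μM ATP after 30 min; IC50 from nonlinear regression of % inhibition.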

human CD73 = target: T2, human CD73 (Homo sapiens, UniProt P21589); assay: Inhibitor activity against CD73 in cell based assay (CD73 expressing CHO-K1 cells); conditions: CHO-K1 cells expressing human CD73, 150 μM AMP, 4 hours of incubation; read-out: CHO-K1 CELL_VARIANT: CD73 IC50
T2 construct: expressed in transfected cells
T2 sequence (P21589 27-549): T1 sequence (P21589 27-549)
Outline: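 Stable human CD73 CHO-K1 cells, 1×10^4/well, exposed to an 8-point 1:3 compound series (top 10 μM, 0.2% DMSO) plus 150 μM AMP for 4 h. Remaining AMP in the supernatant was read by CellTiter-Glo 2.0 luminescence with 1 μM ATP after 30 min at room temperature. IC50 came from nonlinear regression of % inhibition against cell and media-only controls.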

Structure (SMILES)	IC50 [1] [µM]	IC50 (human CD73) [µM]
COCc1noc(C)c1-c1cc(O[C@@H]2CCN(c3cnn(CCO)c(=O)c3Cl)C2)ncn1 [P-0124, (R)-4-chloro-2-(2-hydroxyethyl)-5-(3-((6-(3-(methoxymethyl)-5-methylisoxazol-4-yl)pyrimidin-4-yl)oxy)pyrrolidin-1-yl)pyridazin-3(2H)-one]	0.001 to 10	0.001 to 10
CC(=O)C1CC=C(c2ccnc(O[C@@H]3CCN(c4cn[nH]c(=O)c4Cl)C3)c2)CC1 (stereo partly drawn) [P-0068, 5-((3R)-3-((4-(4-acetylcyclohex-1-en-1-yl)pyridin-2-yl)oxy)pyrrolidin-1-yl)-4-chloropyridazin-3(2H)-one]	0.001 to 10	0.001 to 10
CCCS(=O)(=O)Nc1ccc(-c2ccnc(O[C@@H]3CCN(c4cn[nH]c(=O)c4Cl)C3)c2)c(F)c1 [P-0204, (R)-N-(4-(2-((1-(5-chloro-6-oxo-1,6-dihydropyridazin-4-yl)pyrrolidin-3-yl)oxy)pyridin-4-yl)-3-fluorophenyl)propane-1-sulfonamide]	0.001 to 10	0.001 to 10
O=c1[nH]ncc(N2CC[C@@H](Oc3cc(-c4ccc(C(F)(F)F)cc4Cl)ccn3)C2)c1Cl [P-0232, (R)-4-chloro-5-(3-((4-(2-chloro-4-(trifluoromethyl)phenyl)pyridin-2-yl)oxy)pyrrolidin-1-yl)pyridazin-3(2H)-one]	0.001 to 10	0.001 to 10
Cc1nn(CC(C)(C)O)c(C)c1-c1ccnc(O[C@@H]2CCN(c3cn[nH]c(=O)c3Cl)C2)c1 [P-0038, (R)-4-chloro-5-(3-((4-(1-(2-hydroxy-2-methylpropyl)-3,5-dimethyl-1H-pyrazol-4-yl)pyridin-2-yl)oxy)pyrrolidin-1-yl)pyridazin-3(2H)-one]	0.001 to 10	0.001 to 10
CS(=O)(=O)N1CC=C(c2ccnc(O[C@@H]3CCN(c4cn[nH]c(=O)c4Cl)C3)c2)CC1 [P-0029, (R)-4-chloro-5-(3-((1′-(methylsulfonyl)-1′,2′,3′,6′-tetrahydro-[4,4′-bipyridin]-2-yl)oxy)pyrrolidin-1-yl)pyridazin-3(2H)-one]	0.001 to 10	10 to 100
CC1COCCN1c1ccnc(O[C@@H]2CCN(c3cn[nH]c(=O)c3Cl)C2)c1 (stereo partly drawn) [P-0092, 4-chloro-5-((3R)-3-((4-(3-methylmorpholino)pyridin-2-yl)oxy)pyrrolidin-1-yl)pyridazin-3(2H)-one]	0.001 to 10	0.001 to 10
Cc1noc(C)c1-c1cc(O[C@@H]2CCN(c3cn[nH]c(=O)c3Cl)C2)c(F)cn1 [P-0118, (R)-4-chloro-5-(3-((2-(3,5-dimethylisoxazol-4-yl)-5-fluoropyridin-4-yl)oxy)pyrrolidin-1-yl)pyridazin-3(2H)-one]	0.001 to 10	0.001 to 10
CCCNS(=O)(=O)c1ccc(-c2ccnc(O[C@@H]3CCN(c4cn[nH]c(=O)c4Cl)C3)c2)cc1 [P-0223, (R)-4-(2-((1-(5-chloro-6-oxo-1,6-dihydropyridazin-4-yl)pyrrolidin-3-yl)oxy)pyridin-4-yl)-N-propylbenzenesulfonamide]	0.001 to 10	0.001 to 10
Cc1noc(C)c1-c1ccnc(O[C@@H]2CCN(c3cn[nH]c(=O)c3Cl)C2)c1 [P-0201, (R)-4-chloro-5-(3-((4-(3,5-dimethylisoxazol-4-yl)pyridin-2-yl)oxy)pyrrolidin-1-yl)pyridazin-3(2H)-one]	0.001 to 10	0.001 to 10
COc1ccc2c(c1)cc(-c1ccnc(O[C@@H]3CCN(c4cn[nH]c(=O)c4Cl)C3)c1)n2C [P-0108, (R)-4-chloro-5-(3-((4-(5-methoxy-1-methyl-1H-indol-2-yl)pyridin-2-yl)oxy)pyrrolidin-1-yl)pyridazin-3(2H)-one]	0.001 to 10	0.001 to 10

Other lines, results leading:

IC50 [1] [µM]	IC50 (human CD73) [µM]	Structure (SMILES)
0.001 to 10	0.001 to 10	Cc1nn(C)c(C)c1-c1ccnc(O[C@@H]2CCN(c3cn[nH]c(=O)c3Cl)C2)c1 [P-0203, (R)-4-chloro-5-(3-((4-(1,3,5-trimethyl-1H-pyrazol-4-yl)pyridin-2-yl)oxy)pyrrolidin-1-yl)pyridazin-3(2H)-one]
0.001 to 10	0.001 to 10	O=c1[nH]ncc(N2CC[C@@H](Oc3cc(C4CCC(O)CC4)ccn3)C2)c1Cl (stereo partly drawn) [P-0031, (R)-4-chloro-5-(3-((4-(4-hydroxycyclohexyl)pyridin-2-yl)oxy)pyrrolidin-1-yl)pyridazin-3(2H)-one]
0.001 to 10	0.001 to 10	Cc1noc(C)c1-c1cc(F)nc(O[C@H]2CN(c3cnn(CCO)c(=O)c3Cl)C[C@@H]2F)c1 [P-0188, 4-chloro-5-((3S,4S)-3-((4-(3,5-dimethylisoxazol-4-yl)-6-fluoropyridin-2-yl)oxy)-4-fluoropyrrolidin-1-yl)-2-(2-hydroxyethyl)pyridazin-3(2H)-one]
0.001 to 10	0.001 to 10	Cc1nn(CC(=O)O)c(C)c1-c1ccnc(O[C@@H]2CCN(c3cn[nH]c(=O)c3Cl)C2)c1 [P-0045, (R)-2-(4-(2-((1-(5-chloro-6-oxo-1,6-dihydropyridazin-4-yl)pyrrolidin-3-yl)oxy)pyridin-4-yl)-3,5-dimethyl-1H-pyrazol-1-yl)acetic acid]
0.001 to 10	0.001 to 10	Cc1nn(CC(C)(C)O)c(C)c1-c1cc(F)nc(O[C@@H]2CCN(c3cn[nH]c(=O)c3Cl)C2)c1 [P-0186, (R)-4-chloro-5-(3-((6-fluoro-4-(1-(2-hydroxy-2-methylpropyl)-3,5-dimethyl-1H-pyrazol-4-yl)pyridin-2-yl)oxy)pyrrolidin-1-yl)pyridazin-3(2H)-one]
0.001 to 10	0.001 to 10	Cc1nn(CC2(F)COC2)c(C)c1-c1cc(F)nc(O[C@@H]2CCN(c3cn[nH]c(=O)c3Cl)C2)c1 [P-0133, (R)-4-chloro-5-(3-((6-fluoro-4-(1-((3-fluorooxetan-3-yl)methyl)-3,5-dimethyl-1H-pyrazol-4-yl)pyridin-2-yl)oxy)pyrrolidin-1-yl)pyridazin-3(2H)-one]
0.001 to 10	0.001 to 10	Cc1nn(C2COC2)c(C)c1-c1cc(O[C@@H]2CCN(c3cnn(CCO)c(=O)c3Cl)C2)ncc1F [P-0020, (R)-4-chloro-5-(3-((4-(3,5-dimethyl-1-(oxetan-3-yl)-1H-pyrazol-4-yl)-5-fluoropyridin-2-yl)oxy)pyrrolidin-1-yl)-2-(2-hydroxyethyl)pyridazin-3(2H)-one]
0.001 to 10	0.001 to 10	Cc1noc(C)c1-c1ccnc(O[C@H]2CN(c3cn[nH]c(=O)c3Cl)C[C@@H]2F)c1 [P-0180, 4-chloro-5-((3S,4S)-3-((4-(3,5-dimethylisoxazol-4-yl)pyridin-2-yl)oxy)-4-fluoropyrrolidin-1-yl)pyridazin-3(2H)-one]
0.001 to 10	0.001 to 10	Cc1nn(CCC(F)(F)F)c(C)c1-c1cc(F)nc(O[C@@H]2CCN(c3cn[nH]c(=O)c3Cl)C2)c1 [P-0166, (R)-4-chloro-5-(3-((4-(3,5-dimethyl-1-(3,3,3-trifluoropropyl)-1H-pyrazol-4-yl)-6-fluoropyridin-2-yl)oxy)pyrrolidin-1-yl)pyridazin-3(2H)-one]
0.001 to 10	0.001 to 10	CC1(CN2CCC(c3ccnc(O[C@@H]4CCN(c5cn[nH]c(=O)c5Cl)C4)c3)CC2)COC1 [P-0005, (R)-4-chloro-5-(3-((4-(1-((3-methyloxetan-3-yl)methyl)piperidin-4-yl)pyridin-2-yl)oxy)pyrrolidin-1-yl)pyridazin-3(2H)-one]
0.001 to 10	0.001 to 10	Cc1nn(CCN2CCOCC2)c(C)c1-c1cc(F)nc(O[C@@H]2CCN(c3cn[nH]c(=O)c3Cl)C2)c1 [P-0160, (R)-4-chloro-5-(3-((4-(3,5-dimethyl-1-(2-morpholinoethyl)-1H-pyrazol-4-yl)-6-fluoropyridin-2-yl)oxy)pyrrolidin-1-yl)pyridazin-3(2H)-one]
0.001 to 10	0.001 to 10	Cc1noc(C)c1-c1ccnc(O[C@@H]2CCN(c3cn[nH]c(=O)c3C(F)(F)F)C2)c1 [P-0051, (R)-5-(3-((4-(3,5-dimethylisoxazol-4-yl)pyridin-2-yl)oxy)pyrrolidin-1-yl)-4-(trifluoromethyl)pyridazin-3(2H)-one]
0.001 to 10	0.001 to 10	Cc1nn(C)c(C)c1-c1cc(O[C@@H]2CCN(c3cn[nH]c(=O)c3Cl)C2)cnn1 [P-0157, (R)-4-chloro-5-(3-((6-(1,3,5-trimethyl-1H-pyrazol-4-yl)pyridazin-4-yl)oxy)pyrrolidm-1-yl)pyridazin-3(2H)-one]
0.001 to 10	0.001 to 10	Cc1nn(C(CO)CO)c(C)c1-c1cc(O[C@H]2CN(c3cnn(CCO)c(=O)c3Cl)C[C@@H]2F)ncc1F [P-0006, 4-chloro-5-((3S,4S)-3-((4-(1-(1,3-dihydroxypropan-2-yl)-3,5-dimethyl-1H-pyrazol-4-yl)-5-fluoropyridin-2-yl)oxy)-4-fluoropyrrolidin-1-yl)-2-(2-hydroxyethyl)pyridazin-3(2H)-one]
